Data published in article PMC9403976, “Elucidating the path to Plasmodium prolyl-tRNA synthetase inhibitors that overcome halofuginone resistance” (Nature Communications, 2022).
Where “and” joins values, the source holds several entries; their conditions need not be identical. Equal values may be shown once. Read-outs that look alike come from different tables or passages of the source.

Experiments:
PfcProRS = biological target: T1, PfcProRS (Plasmodium falciparum, UniProt Q8I5R7); assay type: binding; conditions: for dose-response signal (normalized), SI Fig 8: single replicates
T1 construct: made in house; host or cells: E. coli SoluBL-21

[1] = system: HFGR-I P. falciparum (elevated proline homeostasis and PfcProRS^L482H); experiment: P. falciparum ABS growth assay, SYBR Green, 72 h, HFGR-I parasites; assay type: cell-based, Plasmodium falciparum; conditions: HFGR-I
Summary of the method: (§1)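 EC50 came from SYBR Green 1 fluorescence measured 72 h after dosing in triplicate dose-response. Dihydroartemisinin at 10 μM set full kill and untreated wells set full growth. Cultures of the Dd2 lines were seeded at 1% hematocrit and 1% parasitemia in Albumax-supplemented RPMI.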

[2] = system: halofuginone-induced P. falciparum (elevated proline homeostasis); experiment: P. falciparum ABS growth assay, SYBR Green, 72 h, halofuginone-induced parasites; assay type: cell-based, Plasmodium falciparum; conditions: Halofuginone-Induced (HFG-Induced)
Summary of the method: as §1

HsProRS = HsProRS (Homo sapiens, UniProt P07814); experiment: TR-FRET ligand displacement assay with tracer MAT379 (CoraFluor-1-Halo and anti-His6 antibody formats); assay type: binding; parameters: made in house; host or cells: E. coli SoluBL-21; conditions: for Kd: 250 nM MAT379; for TR-FRET dose-response, normalized signal (SI Fig 11): individual replicates
P. falciparum Dd2-2D4 = experiment: P. falciparum asexual blood stage (ABS) growth assay, SYBR Green, 72 h, wild-type parasites; assay type: cell-based, Plasmodium falciparum; conditions: for ABS growth dose-response, normalized signal (Replicates 1-3): Dd2-2D4

T1 sequence (Q8I5R7 249-746): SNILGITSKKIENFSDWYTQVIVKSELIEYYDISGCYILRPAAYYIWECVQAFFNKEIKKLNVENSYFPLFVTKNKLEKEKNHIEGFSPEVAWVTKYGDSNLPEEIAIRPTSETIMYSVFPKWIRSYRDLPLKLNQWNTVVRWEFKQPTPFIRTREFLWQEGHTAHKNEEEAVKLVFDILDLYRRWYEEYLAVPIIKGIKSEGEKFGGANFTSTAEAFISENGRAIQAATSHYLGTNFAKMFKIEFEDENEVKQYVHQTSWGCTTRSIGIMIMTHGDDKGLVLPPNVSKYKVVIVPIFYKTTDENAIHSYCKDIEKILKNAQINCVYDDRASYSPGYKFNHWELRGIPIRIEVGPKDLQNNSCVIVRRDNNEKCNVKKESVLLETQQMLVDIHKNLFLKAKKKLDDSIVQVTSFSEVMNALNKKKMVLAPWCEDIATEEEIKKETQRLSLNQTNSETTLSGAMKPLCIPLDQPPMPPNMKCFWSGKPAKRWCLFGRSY
HsProRS, sequence (P07814 996-1512): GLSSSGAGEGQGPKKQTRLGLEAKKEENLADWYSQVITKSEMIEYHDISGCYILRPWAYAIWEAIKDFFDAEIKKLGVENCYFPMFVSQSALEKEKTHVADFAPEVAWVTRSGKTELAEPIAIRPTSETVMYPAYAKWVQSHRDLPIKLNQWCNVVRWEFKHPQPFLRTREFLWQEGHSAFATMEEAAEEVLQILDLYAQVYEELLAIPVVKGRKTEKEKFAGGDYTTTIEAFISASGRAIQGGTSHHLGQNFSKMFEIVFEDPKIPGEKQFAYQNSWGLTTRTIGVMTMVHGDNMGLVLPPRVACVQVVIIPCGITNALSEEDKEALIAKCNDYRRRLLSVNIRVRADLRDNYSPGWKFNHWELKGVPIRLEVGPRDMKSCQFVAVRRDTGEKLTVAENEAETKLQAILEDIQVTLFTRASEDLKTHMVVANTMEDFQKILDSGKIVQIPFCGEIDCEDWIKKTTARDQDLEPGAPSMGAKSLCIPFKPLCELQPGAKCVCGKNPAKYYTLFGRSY

## CC(C)(C)OC(=O)N[C@H]1CC[C@@H](C(=O)Nc2nccnc2C(=O)NC2Cc3ccccc3C2)CC1 [compound 6]
PfcProRS; Log[inhibitor] (M) -5.000
  dose-response signal (normalized), SI Fig 8: -1.61E-02 and -5.30E-02 and -3.81E-03
PfcProRS; Log[inhibitor] (M) -5.301
  dose-response signal (normalized), SI Fig 8: -7.80E-02 and -1.87E-02 and -8.78E-02
PfcProRS; Log[inhibitor] (M) -5.601
  dose-response signal (normalized), SI Fig 8: 1.78E-02 and -1.26E-02 and 5.92E-03
PfcProRS; Log[inhibitor] (M) -5.904
  dose-response signal (normalized), SI Fig 8: 6.25E-02 and 5.05E-02 and 9.24E-02
PfcProRS; Log[inhibitor] (M) -6.208
  dose-response signal (normalized), SI Fig 8: 5.23E-02 and 1.76E-01 and 1.80E-01
PfcProRS; Log[inhibitor] (M) -6.509
  dose-response signal (normalized), SI Fig 8: 2.25E-01 and 2.68E-01 and 2.02E-01
PfcProRS; Log[inhibitor] (M) -6.796
  dose-response signal (normalized), SI Fig 8: 4.96E-01 and 4.42E-01 and 4.81E-01
PfcProRS; Log[inhibitor] (M) -7.108
  dose-response signal (normalized), SI Fig 8: 6.45E-01 and 6.22E-01 and 4.90E-01
PfcProRS; Log[inhibitor] (M) -7.409
  dose-response signal (normalized), SI Fig 8: 7.15E-01 and 8.22E-01 and 8.32E-01
PfcProRS; Log[inhibitor] (M) -7.710
  dose-response signal (normalized), SI Fig 8: 9.70E-01 and 9.04E-01 and 8.55E-01
PfcProRS; Log[inhibitor] (M) -8.000
  dose-response signal (normalized), SI Fig 8: 8.78E-01 and 9.57E-01 and 8.94E-01
PfcProRS; Log[inhibitor] (M) -8.301
  dose-response signal (normalized), SI Fig 8: 1.00E+00 and 9.97E-01 and 9.67E-01
PfcProRS; Log[inhibitor] (M) -8.602
  dose-response signal (normalized), SI Fig 8: 1.06E+00 and 9.31E-01 and 1.01E+00
PfcProRS; Log[inhibitor] (M) -9.000
  dose-response signal (normalized), SI Fig 8: 9.58E-01 and 9.81E-01 and 9.50E-01
PfcProRS; Log[inhibitor] (M) -9.301
  dose-response signal (normalized), SI Fig 8: 1.01E+00 and 1.02E+00 and 9.51E-01
PfcProRS; SI Fig 16a, values on -log scale
  PfcProRS -- best Kd: 7.580
[1]; Log[inhibitor] (M) -5.000
  ABS growth dose-response, normalized signal (Replicates 1-3): 30 and 31 and 35
[1]; Log[inhibitor] (M) -5.301
  ABS growth dose-response, normalized signal (Replicates 1-3): 64 and 68 and 70
[1]; Log[inhibitor] (M) -5.602
  ABS growth dose-response, normalized signal (Replicates 1-3): 83 (2×) and 82
[1]; Log[inhibitor] (M) -5.903
  ABS growth dose-response, normalized signal (Replicates 1-3): 92 and 97 and 94
[1]; Log[inhibitor] (M) -6.204
  ABS growth dose-response, normalized signal (Replicates 1-3): 105 and 106 and 108
[1]; Log[inhibitor] (M) -6.505
  ABS growth dose-response, normalized signal (Replicates 1-3): 108 (2×) and 110
[1]; Log[inhibitor] (M) -6.806
  ABS growth dose-response, normalized signal (Replicates 1-3): 85 and 90 (2×)
[1]; Log[inhibitor] (M) -7.107
  ABS growth dose-response, normalized signal (Replicates 1-3): 91 and 92 and 97
[1]; Log[inhibitor] (M) -7.408
  ABS growth dose-response, normalized signal (Replicates 1-3): 92 and 97 and 99
[1]; Log[inhibitor] (M) -7.709
  ABS growth dose-response, normalized signal (Replicates 1-3): 95 and 99 (2×)
[1]; Log[inhibitor] (M) -8.010
  ABS growth dose-response, normalized signal (Replicates 1-3): 107 and 102 and 97
[1]; Log[inhibitor] (M) -8.311
  ABS growth dose-response, normalized signal (Replicates 1-3): 104 and 108 and 101
[2]; Log[inhibitor] (M) -5.000
  ABS growth dose-response, normalized signal (Replicates 1-3): 38 and 37 and 33
[2]; Log[inhibitor] (M) -5.301
  ABS growth dose-response, normalized signal (Replicates 1-3): 80 and 73 and 79
[2]; Log[inhibitor] (M) -5.602
  ABS growth dose-response, normalized signal (Replicates 1-3): 89 and 91 and 90
[2]; Log[inhibitor] (M) -5.903
  ABS growth dose-response, normalized signal (Replicates 1-3): 99 and 97 and 98
[2]; Log[inhibitor] (M) -6.204
  ABS growth dose-response, normalized signal (Replicates 1-3): 99 and 98 and 96
[2]; Log[inhibitor] (M) -6.505
  ABS growth dose-response, normalized signal (Replicates 1-3): 98 and 107 and 101
[2]; Log[inhibitor] (M) -6.806
  ABS growth dose-response, normalized signal (Replicates 1-3): 93 and 91 and 99
[2]; Log[inhibitor] (M) -7.107
  ABS growth dose-response, normalized signal (Replicates 1-3): 91 and 93 and 96
[2]; Log[inhibitor] (M) -7.408
  ABS growth dose-response, normalized signal (Replicates 1-3): 96 and 93 and 99
[2]; Log[inhibitor] (M) -7.709
  ABS growth dose-response, normalized signal (Replicates 1-3): 100 and 98 (2×)
[2]; Log[inhibitor] (M) -8.010
  ABS growth dose-response, normalized signal (Replicates 1-3): 99 (2×) and 97
[2]; Log[inhibitor] (M) -8.311
  ABS growth dose-response, normalized signal (Replicates 1-3): 98 and 97 and 96
HsProRS; HsProRS (KD [nM]) + proline, 100 μM proline
  Kd: 82.7 nM
HsProRS; HsProRS (KD [nM]) −, absence of substrates
  Kd: 56.8 nM
HsProRS; Log[inhibitor] (M) -5.000
  normalized TR-FRET ligand displacement signal, dose-response replicates (SI Fig 6): -9.02E-03 and -3.85E-02 and -4.81E-02
  TR-FRET dose-response, normalized signal (SI Fig 11): -2.98E-03 and 2.00E-02 and -3.48E-02
HsProRS; Log[inhibitor] (M) -5.301
  normalized TR-FRET ligand displacement signal, dose-response replicates (SI Fig 6): 1.39E-03 and -1.19E-02 and 6.50E-02
  TR-FRET dose-response, normalized signal (SI Fig 11): -9.84E-03 and -1.64E-02 and -3.17E-02
HsProRS; Log[inhibitor] (M) -5.601
  normalized TR-FRET ligand displacement signal, dose-response replicates (SI Fig 6): 3.06E-03 and 6.60E-02 and -6.88E-02
  TR-FRET dose-response, normalized signal (SI Fig 11): 1.87E-02 and 1.41E-03 and 1.94E-02
HsProRS; Log[inhibitor] (M) -5.904
  normalized TR-FRET ligand displacement signal, dose-response replicates (SI Fig 6): 1.31E-01 and 8.92E-02 and 1.65E-02
  TR-FRET dose-response, normalized signal (SI Fig 11): 4.76E-02 and 6.37E-02 and 6.71E-02
HsProRS; Log[inhibitor] (M) -6.208
  normalized TR-FRET ligand displacement signal, dose-response replicates (SI Fig 6): 8.21E-02 and 1.14E-01 and 9.74E-02
  TR-FRET dose-response, normalized signal (SI Fig 11): 1.11E-01 and 9.52E-02 and 8.68E-02
HsProRS; Log[inhibitor] (M) -6.509
  normalized TR-FRET ligand displacement signal, dose-response replicates (SI Fig 6): 3.32E-01 and 2.13E-01 and 2.09E-01
  TR-FRET dose-response, normalized signal (SI Fig 11): 1.70E-01 and 1.88E-01 and 1.94E-01
HsProRS; Log[inhibitor] (M) -6.796
  normalized TR-FRET ligand displacement signal, dose-response replicates (SI Fig 6): 3.90E-01 and 3.58E-01 and 4.40E-01
  TR-FRET dose-response, normalized signal (SI Fig 11): 3.16E-01 and 2.94E-01 and 3.43E-01
HsProRS; Log[inhibitor] (M) -7.108
  normalized TR-FRET ligand displacement signal, dose-response replicates (SI Fig 6): 6.29E-01 and 5.81E-01 and 6.23E-01
  TR-FRET dose-response, normalized signal (SI Fig 11): 5.24E-01 and 5.07E-01 and 4.16E-01
HsProRS; Log[inhibitor] (M) -7.409
  normalized TR-FRET ligand displacement signal, dose-response replicates (SI Fig 6): 7.27E-01 and 7.69E-01 and 8.30E-01
  TR-FRET dose-response, normalized signal (SI Fig 11): 6.04E-01 and 6.96E-01 and 6.63E-01
HsProRS; Log[inhibitor] (M) -7.710
  normalized TR-FRET ligand displacement signal, dose-response replicates (SI Fig 6): 8.52E-01 and 7.93E-01 and 9.04E-01
  TR-FRET dose-response, normalized signal (SI Fig 11): 7.36E-01 and 7.44E-01 and 7.53E-01
HsProRS; Log[inhibitor] (M) -8.000
  normalized TR-FRET ligand displacement signal, dose-response replicates (SI Fig 6): 8.26E-01 and 9.38E-01 and 9.73E-01
  TR-FRET dose-response, normalized signal (SI Fig 11): 8.98E-01 and 8.12E-01 and 7.76E-01
HsProRS; Log[inhibitor] (M) -8.301
  normalized TR-FRET ligand displacement signal, dose-response replicates (SI Fig 6): 9.79E-01 and 9.47E-01 and 1.01E+00
  TR-FRET dose-response, normalized signal (SI Fig 11): 8.89E-01 and 8.40E-01 and 9.15E-01
HsProRS; Log[inhibitor] (M) -8.602
  normalized TR-FRET ligand displacement signal, dose-response replicates (SI Fig 6): 9.42E-01 and 9.96E-01 and 9.03E-01
  TR-FRET dose-response, normalized signal (SI Fig 11): 9.56E-01 and 8.65E-01 and 9.25E-01
HsProRS; Log[inhibitor] (M) -9.000
  normalized TR-FRET ligand displacement signal, dose-response replicates (SI Fig 6): 9.97E-01 and 9.50E-01 and 8.98E-01
  TR-FRET dose-response, normalized signal (SI Fig 11): 9.29E-01 and 9.09E-01 and 9.22E-01
HsProRS; Log[inhibitor] (M) -9.301
  normalized TR-FRET ligand displacement signal, dose-response replicates (SI Fig 6): 1.05E+00 and 9.90E-01 and 1.06E+00
  TR-FRET dose-response, normalized signal (SI Fig 11): 9.30E-01 and 9.49E-01 and 9.75E-01
P. falciparum Dd2-2D4; Log[inhibitor] (M) -4.699
  ABS growth dose-response, normalized signal (Replicates 1-3): 0
P. falciparum Dd2-2D4; Log[inhibitor] (M) -5.301
  ABS growth dose-response, normalized signal (Replicates 1-3): 1
P. falciparum Dd2-2D4; Log[inhibitor] (M) -5.903
  ABS growth dose-response, normalized signal (Replicates 1-3): 4
P. falciparum Dd2-2D4; Plasmodium falciparum, DD2, SI Fig 16b, values on -log scale, read-out: ABS - Dd2-2D4 (converted)
  EC50: 508 nM
